Experimental data from the Kinase Knowledgebase extract (Sharma et al. 2016).

target: EGFR (UniProt P00533)
Sequence (P00533 whole entry, looked up): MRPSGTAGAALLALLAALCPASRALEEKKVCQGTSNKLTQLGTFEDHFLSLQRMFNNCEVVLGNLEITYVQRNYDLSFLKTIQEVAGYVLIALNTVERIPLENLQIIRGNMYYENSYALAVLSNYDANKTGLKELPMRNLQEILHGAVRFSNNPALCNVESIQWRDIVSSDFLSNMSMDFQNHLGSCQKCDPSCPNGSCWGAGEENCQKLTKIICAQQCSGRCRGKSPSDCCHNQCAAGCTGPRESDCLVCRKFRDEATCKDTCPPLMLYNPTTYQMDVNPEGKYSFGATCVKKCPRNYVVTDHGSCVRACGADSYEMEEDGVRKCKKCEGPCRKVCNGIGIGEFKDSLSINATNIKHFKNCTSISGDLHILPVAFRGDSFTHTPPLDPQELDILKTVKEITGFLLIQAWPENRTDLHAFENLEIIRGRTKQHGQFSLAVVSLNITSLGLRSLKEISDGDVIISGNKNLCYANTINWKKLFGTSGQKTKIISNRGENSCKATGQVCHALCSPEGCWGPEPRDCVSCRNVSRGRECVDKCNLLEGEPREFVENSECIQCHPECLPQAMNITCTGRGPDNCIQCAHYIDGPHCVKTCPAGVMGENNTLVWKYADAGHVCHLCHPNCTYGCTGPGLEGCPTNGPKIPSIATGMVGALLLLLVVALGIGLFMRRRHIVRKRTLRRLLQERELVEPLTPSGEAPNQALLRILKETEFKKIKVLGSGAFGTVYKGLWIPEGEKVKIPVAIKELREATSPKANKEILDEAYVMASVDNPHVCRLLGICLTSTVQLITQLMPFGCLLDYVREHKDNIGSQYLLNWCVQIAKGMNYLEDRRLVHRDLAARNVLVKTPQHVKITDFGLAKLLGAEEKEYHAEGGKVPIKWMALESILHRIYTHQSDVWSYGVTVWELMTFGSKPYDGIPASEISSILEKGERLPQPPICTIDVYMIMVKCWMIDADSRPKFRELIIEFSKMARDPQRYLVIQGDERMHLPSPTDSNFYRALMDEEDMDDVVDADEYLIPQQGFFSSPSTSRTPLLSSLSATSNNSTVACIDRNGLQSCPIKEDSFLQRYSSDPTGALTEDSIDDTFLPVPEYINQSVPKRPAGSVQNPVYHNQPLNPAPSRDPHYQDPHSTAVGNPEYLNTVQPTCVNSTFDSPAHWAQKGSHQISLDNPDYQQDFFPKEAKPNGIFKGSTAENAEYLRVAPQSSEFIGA

IC50 [nM]	SMILES
≤ 1000	COc1cc2c(NS(=O)(=O)c3ccccc3Cl)ncnc2cc1OCCN1CCN(C)CC1
≤ 1000	COc1cc2c(NS(=O)(=O)c3ccc(Cl)s3)ncnc2cc1OCCCN(C)C
≤ 1000	COc1ccc(OC)c(S(=O)(=O)Nc2ncnc3cc(OCCN4CCOCC4)c(OC)cc23)c1
≤ 1000	CCN(CC)CCOc1cc2ncnc(NS(=O)(=O)c3ccc(C)cc3)c2cc1OC
≤ 1000	COc1cc2c(NS(=O)(=O)c3cccc4cccnc34)ncnc2cc1OCCCN(C)C
≤ 1000	COc1cc2c(NS(=O)(=O)c3ccccc3C)ncnc2cc1OCCN1CCOCC1
≤ 1000	COc1cc2c(NS(=O)(=O)c3ccc(F)cc3)ncnc2cc1OC1CCN(C)CC1
≤ 1000	COc1cc2c(NS(=O)(=O)c3ccc(C)cc3)ncnc2cc1OCCCN(C)C
≤ 1000	COc1cc2c(NS(=O)(=O)c3ccccc3)ncnc2cc1OCCCN1CCOCC1
≤ 1000	COc1cc2c(NS(=O)(=O)c3ccc(C(C)(C)C)cc3)ncnc2cc1OCCN1CCOCC1
≤ 1000	CCN(CC)CCOc1cc2ncnc(NS(=O)(=O)c3c(C)noc3C)c2cc1OC
≤ 1000	COc1cc2c(NS(C)(=O)=O)ncnc2cc1OCCN1CCN(C)CC1
≤ 1000	COc1cc2c(NS(=O)(=O)c3cccc(Br)c3)ncnc2cc1OC1CCN(C)CC1
≤ 1000	COc1cc2c(NS(=O)(=O)c3cccc4cccnc34)ncnc2cc1OCCN1CCOCC1
≤ 1000	CCN(CC)CCOc1cc2ncnc(NS(=O)(=O)c3cccc(Br)c3)c2cc1OC
≤ 1000	COc1cc2c(NS(=O)(=O)c3ccc(Br)cc3)ncnc2cc1OCCN1CCN(C)CC1
≤ 1000	COc1cc2c(NS(=O)(=O)c3ccc(C(C)(C)C)cc3)ncnc2cc1OCCCN(C)C
≤ 1000	COc1cc2c(NS(=O)(=O)c3ccccc3Cl)ncnc2cc1OCCN1CCOCC1
≤ 1000	COc1cc2c(NS(=O)(=O)c3ccccc3Cl)ncnc2cc1OC1CCN(C)CC1
≤ 1000	COc1cc2c(NS(=O)(=O)c3cc(Cl)c(Cl)s3)ncnc2cc1OCCCN(C)C
≤ 1000	COc1ccc(S(=O)(=O)Nc2ncnc3cc(OCCN4CCCCC4)c(OC)cc23)cc1OC
≤ 1000	COc1cc2c(NS(=O)(=O)c3cc(Cl)c(Cl)s3)ncnc2cc1OCCN1CCN(C)CC1
≤ 1000	COc1cc2c(NS(=O)(=O)c3ccc(Sc4ccccc4)s3)ncnc2cc1OCCCN(C)C
≤ 1000	COc1cc2c(NS(=O)(=O)Cc3ccccc3)ncnc2cc1OCCCN(C)C
≤ 1000	COc1cc2c(NS(=O)(=O)c3ccccc3C)ncnc2cc1OCCCN1CCOCC1

IC50 [nM]	SMILES
≤ 1000	COc1cc2c(NS(=O)(=O)Cc3ccccc3)ncnc2cc1OC1CCN(C)CC1
≤ 1000	COc1cc2c(NS(=O)(=O)c3ccccc3)ncnc2cc1OCCN1CCOCC1
≤ 1000	COc1cc2c(NS(=O)(=O)c3cccc(Cl)c3)ncnc2cc1OC1CCN(C)CC1
≤ 1000	COc1cc2c(NS(=O)(=O)c3ccccc3Cl)ncnc2cc1OCCCN1CCOCC1
≤ 1000	COc1cc2c(NS(=O)(=O)c3ccc(F)cc3)ncnc2cc1OCCCN1CCOCC1
≤ 1000	COc1cc2c(NS(=O)(=O)c3ccc(Cl)s3)ncnc2cc1OCCN1CCN(C)CC1
≤ 1000	COc1cc2c(NS(=O)(=O)c3ccc(F)cc3)ncnc2cc1OCCCN(C)C
≤ 1000	COc1cc2c(NS(=O)(=O)c3c(C)noc3C)ncnc2cc1OCCN1CCOCC1
≤ 1000	COc1cc2c(NS(=O)(=O)c3ccccc3)ncnc2cc1OCCN1CCCCC1
≤ 1000	COc1ccc(S(=O)(=O)Nc2ncnc3cc(OCCCN4CCOCC4)c(OC)cc23)cc1
≤ 1000	COc1ccc(S(=O)(=O)Nc2ncnc3cc(OCCN4CCOCC4)c(OC)cc23)cc1OC
≤ 1000	CCN(CC)CCOc1cc2ncnc(NS(=O)(=O)c3cc(Cl)cc(Cl)c3)c2cc1OC
≤ 1000	COc1cc2c(NS(=O)(=O)c3ccc(C)cc3)ncnc2cc1OCCCN1CCOCC1
≤ 1000	CCN(CC)CCOc1cc2ncnc(NS(=O)(=O)c3ccc(OC(F)(F)F)cc3)c2cc1OC
≤ 1000	COc1cc2c(NS(=O)(=O)c3ccc(Cl)s3)ncnc2cc1OC1CCN(C)CC1
≤ 1000	COc1cc2c(NS(=O)(=O)c3ccc(Br)cc3)ncnc2cc1OCCCN(C)C
≤ 1000	COc1cc2c(NS(=O)(=O)c3ccc(Cl)cc3)ncnc2cc1OCCCN(C)C
≤ 1000	COc1cc2c(NS(=O)(=O)c3ccc(C)cc3)ncnc2cc1OCCN1CCOCC1
≤ 1000	COc1ccc(OC)c(S(=O)(=O)Nc2ncnc3cc(OC4CCN(C)CC4)c(OC)cc23)c1
≤ 1000	COc1cc2c(NS(=O)(=O)c3cc(Cl)cc(Cl)c3)ncnc2cc1OCCCN1CCOCC1
≤ 1000	COc1cc2c(NS(=O)(=O)c3ccc(Cl)cc3)ncnc2cc1OCCN1CCN(C)CC1
≤ 1000	COc1cc2c(NS(C)(=O)=O)ncnc2cc1OC1CCN(C)CC1
≤ 1000	COc1cc2c(NS(=O)(=O)c3ccccc3C)ncnc2cc1OC1CCN(C)CC1
≤ 1000	COc1cc2c(NS(=O)(=O)c3ccc(Cl)cc3)ncnc2cc1OCCN1CCOCC1
≤ 1000	COc1cc2c(NS(=O)(=O)c3cc(Cl)cc(Cl)c3)ncnc2cc1OCCCN(C)C
